Results reported in patent publication EP1914236A1 (Ortho-McNeil Pharmaceutical, Inc., priority 2002, dated 2003).

Target: T1, human B2 bradykinin receptors (Homo sapiens, UniProt P30411)
T1 construct: purchased Receptor Biology, Inc. (Baltimore, MD); host or cells: CHO-K1 cells transfected with the human B2 receptor (membranes)
T1 sequence (P30411 1-391): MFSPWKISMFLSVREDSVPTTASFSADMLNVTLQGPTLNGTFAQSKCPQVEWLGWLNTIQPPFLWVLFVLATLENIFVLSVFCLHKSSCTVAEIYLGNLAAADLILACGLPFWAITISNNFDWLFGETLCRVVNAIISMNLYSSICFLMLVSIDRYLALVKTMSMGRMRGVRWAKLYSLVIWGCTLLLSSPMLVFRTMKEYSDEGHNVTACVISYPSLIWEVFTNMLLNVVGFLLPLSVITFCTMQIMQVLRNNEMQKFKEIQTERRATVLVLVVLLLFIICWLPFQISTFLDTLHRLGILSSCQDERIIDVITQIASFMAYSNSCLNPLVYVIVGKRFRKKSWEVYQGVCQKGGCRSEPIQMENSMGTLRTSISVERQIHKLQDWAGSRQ
Experiment: Bradykinin B2 (BK2) Receptor Binding Assay
Conditions: membranes of CHO-K1 cells transfected with human B2 bradykinin receptors; ~0.25 nM [3H]NPC17731; 60 min at 25°C
Procedure: Cell membranes of CHO-K1 cells transfected with human B2 bradykinin receptors (CH)-hB2) were purchased from Receptor Biology, Inc. (Baltimore,MD).
Samples were harvested on a Brandel Cell Harvester on to Wallac filtermat B sheets (96 sample format), and washed three times with 2 mL cold HEPES-buffer (10 mM, pH 7.5), and dried in a microwave oven.
The data were used to calculate either the % inhibition compared to control binding (when only a single concentration of test compound was evaluated) or a Ki value (when a range of concentrations were tested). Background was subtracted from mean cpm values and % inhibition was calculated as: [(total dpm-test compound dpm)/(total dpm-nonspecific dpm)]x100. Kd and Ki values were calculated using GraphPad PRISM data analysis program.

Ki	Compound
2910 nM	Cc1ccc2cccc(OCc3c(Cl)ccc(N(C)C(=O)Cc4cc(C(=O)c5ccc(S(C)(=O)=O)cc5)cn4C)c3Cl)c2n1 [Compound 1, N-[2,4-Dichloro-3-(2-methyl-quinolin-8-yloxymethyl)-phenyl]-2-[4-(4-methanesulfonyl-benzoyl)-1-methyl-1 H-pyrrol-2-yl]-N-methyl-acetamide]
560 nM	Cc1ccc2cccc(OCc3c(Cl)ccc(N(C)C(=O)Cc4ccc(C(=O)c5ccc(CN6CCCC6)cc5)n4C)c3Cl)c2n1 [Compound 46, N-[2,4-Dichloro-3-(2-methyl-quinolin-8-yloxymethyl)-phenyl]-N-methyl-2-[l-methyl-5-(4-pyrrolidin-1-ylmethyl-benzoyl)-1H-pyrrol-2-yl]-acetamide]
2370 nM	Cc1ccc2cccc(OCc3c(Cl)ccc(N(C)C(=O)Cc4ccc(C(=O)Cc5ccccc5)n4C)c3Cl)c2n1 [Compound 28]
476 nM	Cc1ccc2cccc(OCc3c(Cl)ccc(N(C)C(=O)Cc4ccc(C(=O)c5ccc(C(F)(F)F)cc5)n4C)c3Cl)c2n1 [Compound 51]
510 nM	CCN(CC)CC(=O)c1ccc(CC(=O)N(C)c2ccc(Cl)c(COc3cccc4ccc(C)nc34)c2Cl)n1C [Compound 48]
3610 nM	Cc1ccc(-c2ccc(CC(=O)N(C)c3ccc(C)c(COc4cccc5ccc(C)nc45)c3C)n2C)cc1 [Compound 98, N-[2,4-Dimethyl-3-(2-methyl-quinolin-8-yloxymethyl)-phenyl]-N-methyl-2-(1-methyl-5-p-tolyl-1H-pyrrol-2-yl)-acetamide]
341 nM	Cc1ccc2cccc(OCc3c(Cl)ccc(N(C)C(=O)Cc4ccc(C(=O)c5ccsc5)n4C)c3Cl)c2n1 [Compound 55]
3890 nM	CCCN(C(=O)Cc1ccc(C(=O)c2ccc(C#N)cc2)n1C)c1ccc(Cl)c(COc2cccc3ccc(C)nc23)c1Cl [Compound 19, 2-[5-(4-Cyano-benzoyl)-1-methyl-1H-pyrrol-2-yl]-N-[2,4-dichloro-3-(2-methyl-quinolin-8-yloxymethyl)-phenyl]-N-propyl-acetamide]
1390 nM	Cc1ccc2cccc(OCc3c(Cl)ccc(N(C)C(=O)Cc4ccc(C(=O)c5cccnc5)n4C)c3Cl)c2n1 [Compound 33]
321 nM	COc1ccc(C(=O)c2ccc(CCC(=O)N(C)c3ccc(Cl)c(COc4cccc5ccc(C)nc45)c3Cl)s2)cc1 [Compound 107]
361 nM	Cc1ccc2cccc(OCc3c(Cl)ccc(N(C)C(=O)Cc4ccc(C(=O)c5cccc(N)c5)n4C)c3Cl)c2n1 [Compound 57]
882 nM	Cc1ccc2cccc(OCc3c(Cl)ccc(N(C)C(=O)CCc4ccc(C(=O)c5ccccc5)s4)c3Cl)c2n1 [Compound 105]
1790 nM	Cc1ccc2cccc(OCc3c(Cl)ccc(N(C)C(=O)Cc4ccc(C(=O)C5CCCCC5)n4C)c3Cl)c2n1 [Compound 30]
846 nM	Cc1ccc2cccc(OCc3c(Cl)ccc(N(C)C(=O)Cc4ccc(C(=O)CN5CCCC5)n4C)c3Cl)c2n1 [Compound 37]
68.5 nM	Cc1nc2c(OCc3c(Cl)ccc(N(C)C(=O)Cc4ccc(C(=O)c5ccc(S(C)(=O)=O)cc5)n4C)c3Cl)cccn2c1Br [Compound 103, N-[3-(3-Bromo-2-methyl-imidazo[1,2-a]pyridin-8-yloxymethyl)-2,4-dichlorophenyl]-2-[5-(4-methanesulfonyl-benzoyl)-1-methyl-1H-pyrrol-2-yl]-N-methyl-acetamide]
7190 nM	Cc1ccc2cccc(OCc3c(C)ccc(N(C)C(=O)Cc4ccc(-c5ccccc5)n4C)c3C)c2n1 [Compound 97, N-[2,4-Dimethyl-3-(2-methyl-quinolin-8-yloxymethyl)-phenyl]-N-methyl-2-(1-methyl-5-phenyl-1 H-pyrrol-2-yl)-acetamide]
643 nM	Cc1ccc2cccc(OCc3c(Cl)ccc(N(C)C(=O)Cc4ccc(C(=O)c5cccc(C#N)c5)n4C)c3Cl)c2n1 [Compound 44]
554 nM	Cc1ccc2cccc(OCc3c(C)ccc(N(C)C(=O)CCc4ccc(C(=O)c5ccccc5)s4)c3C)c2n1 [Compound 104]
807 nM	Cc1ccc2cccc(OCc3c(Cl)ccc(N(C)C(=O)Cc4ccc(C(=O)c5cccc6ccccc56)n4C)c3Cl)c2n1 [Compound 38]
406 nM	Cc1ccc2cccc(OCc3c(Cl)ccc(N(C)C(=O)Cc4ccc(C(=O)c5ccc(N)cc5)n4C)c3Cl)c2n1 [Compound 56, 2-[5-(4-Amino-benzoyl)-methyl-1H-pyrrol-2-yl]-N-[2,4-dichloro-3-(2-methyl-quinolin-8-yloxymethyl)-phenyl]-N-methyl-acetamide]
428 nM	Cc1ccc2cccc(OCc3c(Cl)ccc(N(C)C(=O)Cc4ccc(C(=O)c5ccc(N(C)C)cc5)n4C)c3Cl)c2n1 [Compound 118, N-[2,4-Dichloro-3-(2-methyl-quinolin-8-yloxymethyl)-phenyl]-2-[5-(4-dimethylamino-benzoyl)-1-methyl-1H-pyrrol-2-yl]-N-methyl-acetamide]

Ki	Compound
515 nM	Cc1ccc2cccc(OCc3c(Cl)ccc(N(C)C(=O)Cc4ccc(C(=O)c5ccc(CN(C)C)cc5)n4C)c3Cl)c2n1 [Compound 47]
356 nM	Cc1ccc(C(=O)c2ccc(CC(=O)N(C)c3ccc(Cl)c(COc4cccc5ccc(C)nc45)c3Cl)n2C)cc1 [Compound 54]
4050 nM	Cc1ccc2cccc(OCc3c(Cl)ccc(N(C)C(=O)Cc4ccc(C(=O)c5ccc6ccccc6c5)n4C)c3Cl)c2n1 [Compound 26]
704 nM	Cc1ccc2cccc(OCc3c(Cl)ccc(N(C)C(=O)Cc4ccc(C(=O)c5ccc(C)s5)n4C)c3Cl)c2n1 [Compound 41]
518 nM	COc1ccc(C(=O)c2cc(CC(=O)N(C)c3ccc(Cl)c(COc4cccc5ccc(C)nc45)c3Cl)n(C)c2)cc1 [Compound 2, N-[2,4-Dichloro-3-(2-methyl-quinolin-8-yloxymethyl)-phenyl]-2-[4-(4-methoxybenzoyl)-1-methyl-1 H-pyrrol-2-yl]-N-methyl-acetamide]
1710 nM	Cc1ccc2cccc(OCc3c(Cl)ccc(N(C)C(=O)Cc4ccc(C(=O)C(C)(C)C)n4C)c3Cl)c2n1 [Compound 31]
3800 nM	Cc1ccc2cccc(OCc3c(Cl)ccc(N(C)C(=O)Cc4ccc(C(=O)C=Cc5ccccc5)n4C)c3Cl)c2n1 [Compound 27]
1560 nM	COc1ccc(C(=O)c2c(C)cc(CC(=O)Nc3ccc(Cl)c(COc4cccc5ccc(C)nc45)c3Cl)n2C)cc1 [Compound 120]
2290 nM	Cc1ccc2cccc(OCc3c(Cl)ccc(N(C)C(=O)Cc4ccc(C(=O)c5ccccc5)n4C)c3Cl)c2n1 [Compound 29]
869 nM	CC(=O)Nc1ccccc1C(=O)c1ccc(CC(=O)N(C)c2ccc(Cl)c(COc3cccc4ccc(C)nc34)c2Cl)n1C [Compound 36]
532 nM	CCn1cc(CC(=O)N(C)c2ccc(Cl)c(COc3cccc4ccc(C)nc34)c2Cl)cc1C(=O)c1ccc(C#N)cc1 [Compound 3, 2-[5-(4-Cyano-benzoyl)-1-ethyl-1H-pyrrol-3-yl]-N-[2,4-dichloro-3-(2-methyl-quinolin-8-yloxymethyl)phenyl]-N-methyl-acetamide]
2120 nM	COc1ccc(-c2ccc(CC(=O)N(C)c3ccc(C)c(COc4cccc5ccc(C)nc45)c3C)n2C)cc1 [Compound 96, N-[2,4-Dimethyl-3-(2-methyl-quinolin-8-yloxymethyl)-phenyl]-2-[5-(4-methoxyphenyl)-1-methyl-1H-pyrrol-2-yl]-N-methyl-acetamide]
47.4 nM	Cc1nc2c(OCc3c(Cl)ccc(N(C)C(=O)Cc4ccc(C(=O)c5ccc(C#N)cc5)n4C)c3Cl)cccn2c1Br [Compound 102, N-[3-(3-Bromo-2-methyl-imidazo[1,2-a]pyridin-8-yloxymethyl)-2,4-dichlorophenyl]-2-[5-(4-cyano-benzoyl)-1-methyl-1H-pyrrol-2-yl]-N-methyl-acetamide]
19800 nM	Cc1ccc2cccc(OCc3c(Cl)ccc(NC(=O)Cc4cc(C)c(C(=O)c5ccc(N)cc5)n4C)c3Cl)c2n1 [Compound 121]
5350 nM	Cc1ccc2cccc(OCc3c(Cl)ccc(N(C)C(=O)Cc4ccc(C(=O)CN(C)c5ccccc5)n4C)c3Cl)c2n1 [Compound 24]
784 nM	CC(C)=CC(=O)c1ccc(CC(=O)N(C)c2ccc(Cl)c(COc3cccc4ccc(C)nc34)c2Cl)n1C [Compound 39]
162 nM	Cc1ccc2cccc(OCc3c(Cl)ccc(N(C)C(=O)Cc4ccc(C(=O)c5ccc(S(N)(=O)=O)cc5)n4C)c3Cl)c2n1 [Compound 70]
6.4 nM	Cc1ccc2cccc(OCc3c(Cl)ccc(N(C)C(=O)Cc4cc(C(=O)c5ccc(C#N)cc5)cs4)c3Cl)c2n1 [Compound 115, 2-[4-(4-Cyano-benzoyl)-thiophen-2-yl]-N-[2,4-dichloro-3-(2-methyl-quinolin-8-yloxymethyl)-phenyl]-N-methyl-acetamide]
1150 nM	Cc1ccc2cccc(OCc3c(Cl)ccc(N(C)C(=O)Cc4ccc(C(=O)c5ccc(F)cc5)n4C)c3Cl)c2n1 [Compound 34]
514 nM	C=CCN(C(=O)Cc1ccc(C(=O)c2ccc(C#N)cc2)n1C)c1ccc(Cl)c(COc2cccc3ccc(C)nc23)c1Cl [Compound 21]
90 nM	2-(5-Benzoyl-thiophen-2-yl)-N-[2,4-dimethyl-3-(2-methyl-quinolin-8-yloxymethyl)-phenyl]-N-methyl-acetamide [Compound 108]
